According to patent publication US7999137B2, “Pesticide bi-phenyl-amidine derivatives” (Bayer Cropscience AG, priority 2006, dated 2011):

Test: logP by HPLC on reversed-phase column (C 18), EEC Directive 79/831 Annex V.A8
Type: physicochemical
Conditions: 40° C., 0.1% aqueous formic acid and acetonitrile; for log p (HCOOH): HPLC reversed-phase C 18, linear gradient 10% to 90% acetonitrile; for chromatographic logP: reversed-phase HPLC column (C 18), pH 2.3, HPLC, read-out: log P (pH 2.3)
Protocol: Temperature: 40° C.; Mobile phases: 0.1% aqueous formic acid and acetonitrile; linear gradient from 10% acetonitrile to 90% acetonitrile.
Calibration was carried out using unbranched alkan-2-ones (comprising 3 to 16 carbon atoms) with known logP values (determination of the logP values by the retention times using linear interpolation between two successive alkanones).

Row | Compound | log p (HCOOH) | chromatographic logP
1 | CCN(C)C=Nc1cc(C#N)c(-c2ccc(C(C)(C)C)cc2)cc1C [Compound 177] | 2.21 | 
2 | CCN(C)C=Nc1cc(C)c(-c2ccc(C(C)(C)C)c(Cl)c2)cc1C [Compound 168] | 2.85 | 
3 | CCN(C)C=Nc1ccc(-c2ccc(C(C)=NOC)cc2)cc1C [Compound 31] | 2.02 | 
4 | CCN(C)C=Nc1ccc(-c2ccc(C(F)(F)F)cc2)cc1C(F)(F)F [Compound 25] | 2.54 | 
5 | CCN(C)C=Nc1ccc(-c2ccc(Cl)cc2Cl)cc1Cl [Compound 69] | 2.32 | 
6 | Cc1cc(-c2ccc([Si](C)(C)C)cc2)c(C)cc1N=CN1CCCCC1 [Compound 154] | 3.16 | 
7 | CCN(C)C=Nc1cc(C)c(-c2ccc(C3CCCCC3)cc2)cc1C [Compound 165] | 3.18 | 
8 | CCc1cc(-c2ccc(Cl)cc2Cl)ccc1N=CN(C)CC [Compound 57] | 2.26 | 
9 | CCN(C)C=Nc1cc(C)c(-c2ccc(C)cc2)cc1C [Compound 131] | 2.01 | 
10 | C=CCN(C)C=Nc1cc(C)c(-c2ccc(C)c(Cl)c2)cc1C [Compound 148] | 2.48 | 
11 | CCN(C)C=Nc1ccc(-c2ccc(C#N)cc2)cc1C [Compound 130] | 1.54 | 
12 | CCN(C)C=Nc1ccc(-c2ccc(Cl)c(Cl)c2)cc1C(F)(F)F [Compound 81] | 2.57 | 
13 | CCc1cc(-c2ccc(OCc3ccccc3)cc2)ccc1N=CN(C)CC [Compound 60] | 2.39 | 
14 | CCON=C(C)c1ccc(-c2cc(C)c(N=CN3CCCCC3)cc2C)cc1 [Compound 141] | 2.22 | 
15 | CCN(C)C=Nc1ccc(-c2ccc(OC)c(OC)c2)cc1F [Compound 95] | 1.41 | 
16 | CCN(C)C=Nc1cc(C)c(-c2cccc([Si](C)(C)C)c2)cc1C [Compound 179] | 3.00 | 
17 | CCN(C)C=Nc1ccc(-c2ccc(C(C)(C)C)cc2)cc1C(F)(F)F [Compound 2] | 2.83 | 
18 | COc1cc(-c2ccc(C)cc2)c(OC)cc1N=CN(C)C(C)C [Compound 103] | 2.01 | 
19 | CCN(C)C=Nc1cc(OC)c(-c2ccc(OC)c(Cl)c2)cc1OC [Compound 97] | 1.83 | 
20 | CCc1cc(-c2ccc(Cl)c(C(F)(F)F)c2)ccc1N=CN(C)CC [Compound 21] | 2.39 | 
21 | CCN(C)C=Nc1cc(C)c(-c2cc(OC)c(OC)c(OC)c2)cc1C [Compound 39] | 1.68 | 
22 | CCN(C)C=Nc1cc(C)c(-c2ccc(C)c(Cl)c2)cc1C [Compound 146] | 2.37 | 

Row | Compound | log p (HCOOH) | chromatographic logP
23 | CCN(C)C(C)=Nc1cc(C)c(-c2ccc(C(C)(C)C)cc2)cc1C [Compound 176] | 2.77 | 
24 | CCc1cc(-c2ccc(C=NOC)cc2)ccc1N=CN(C)CC [Compound 51] | 2.09 | 
25 | CCc1cc(-c2ccc(COC)cc2)ccc1N=CN(C)CC [Compound 61] | 1.67 | 
26 | CCN(C)C=Nc1ccc(-c2ccc(C(F)(F)F)cc2)cc1Cl [Compound 24] | 1.99 | 
27 | CCN(C)C=Nc1ccc(-c2ccc(COC)cc2)cc1C(F)(F)F [Compound 93] | 1.76 | 
28 | CCON=C(C)c1ccc(-c2cc(C)c(N=CN(C)CC)cc2C)cc1 [Compound 139] | 2.55 | 
29 | CCCN(C)C=Nc1cc(C)c(-c2ccc(C(C)C)cc2)cc1C [Compound 156] | 2.70 | 
30 | Cc1cc(-c2ccc(C(C)(C)C)cc2)c(C)cc1N [Intermediate (VII-1), 4′-tert-butyl-2,5-dimethylbiphenyl-4-amine] |  | 3.65
31 | CCN(C)C=Nc1ccc(-c2ccc(F)c(F)c2)cc1F [Compound 84] | 1.68 | 
32 | CCN(C)C=Nc1cc(C)c(-c2ccc(F)c(Cl)c2)cc1C [Compound 137] | 2.02 | 
33 | CCN(C)C=Nc1ccc(-c2ccc(F)cc2)cc1C(F)(F)F [Compound 14] | 1.93 | 
34 | CCN(C)C=Nc1ccc(-c2ccc(OC)cc2)cc1Cl [Compound 70] | 1.71 | 
35 | CCN(C)C=Nc1cc(C)c(-c2ccc(C=NOC)cc2)cc1C [Compound 40] | 2.05 | 
36 | CCN(C)C=Nc1cc(C)c(-c2ccc(Cl)c(F)c2)cc1C [Compound 41] | 2.32 | 
37 | Cc1cc(-c2ccc(C(C)(C)C)cc2)c(C)cc1N=CN1CCCCC1 [Compound 116] | 2.69 | 
38 | CCN(C)C=Nc1ccc(-c2ccc(Cl)c(C)c2)cc1Cl [Compound 110] | 2.13 | 
39 | CCN(C)C=Nc1cc(C)c(-c2ccc(F)c(F)c2F)cc1C [Compound 43] | 2.32 | 
40 | CCN(C)/C=N/c1cc(C)c(Br)cc1C [Intermediate (Va-1), N′-(4-bromo-2,5-dimethylphenyl)-N-ethyl-N-methylimidoformamide] |  | 1.36
41 | CCN(C)C=Nc1cc(C)c(-c2ccc(COC)cc2)cc1C [Compound 49] | 1.76 | 
42 | CCN(C)C=Nc1ccc(-c2ccc(Cl)cc2C)cc1Cl [Compound 113] | 2.03 | 
43 | Cc1ccc(-c2cc(C)c(N=CN3CCCC3)cc2C)cc1Cl [Compound 150] | 2.37 | 
44 | CCN(C)C=Nc1ccc(-c2ccc(F)c(F)c2F)cc1C(F)(F)F [Compound 79] | 2.29 | 

Row | Compound | log p (HCOOH) | chromatographic logP
45 | CCc1cc(-c2ccc(F)c(F)c2)ccc1N=CN(C)CC [Compound 56] | 2.00 | 
46 | CCN(C)C=Nc1cc(C)c(-c2ccc(C(F)(F)F)cc2)cc1C [Compound 132] | 2.19 | 
47 | Cc1cc(-c2ccc(C(C)(C)C)c(F)c2)c(C)cc1N=CN(C)C(C)C [Compound 169] | 2.74 | 
48 | CCN(C)C=Nc1cc(C)c(-c2cccc(Cl)c2)cc1C [Compound 133] | 2.15 | 
49 | CCc1cc(-c2ccc(F)cc2)ccc1N=CN(C)CC [Compound 23] | 1.79 | 
50 | CCN(C)C(S)=Nc1cc(C)c(-c2ccc(C(C)(C)C)cc2)cc1C [Compound 28] | 4.58 | 
51 | CCN(C)C=Nc1ccc(-c2ccc(OCc3ccccc3)cc2)cc1C(F)(F)F [Compound 91] | 2.43 | 
52 | CCCN(C)C=Nc1cc(C)c(-c2ccc(C)c(Cl)c2)cc1C [Compound 147] | 2.56 | 
53 | CCN(C)C=Nc1cc(C)c(-c2ccc(OC(C)C)cc2)cc1C [Compound 170] | 2.18 | 
54 | CCN(C)C=Nc1ccc(-c2ccc(OCc3ccccc3)cc2)cc1C [Compound 36] | 2.46 | 
55 | CCc1cc(-c2ccc(C(C)=NOC)cc2)ccc1N=CN(C)CC [Compound 53] | 2.19 | 
56 | CCN(C)C=Nc1ccc(-c2ccc(Cl)c(Cl)c2)cc1C [Compound 32] | 2.21 | 
57 | CCN(C)C=Nc1ccc(-c2ccc(OCc3ccccc3)cc2)cc1Cl [Compound 72] | 2.48 | 
58 | CCN(C)C=Nc1ccc(-c2ccc(C=NOC)cc2)cc1Cl [Compound 64] | 1.87 | 
59 | CCN(C)C=Nc1cc(C)c(-c2cccc3ccccc23)cc1C [Compound 135] | 2.13 | 
60 | CCN(C)C=Nc1ccc(-c2ccc(F)c(Cl)c2)cc1C [Compound 5] | 2.00 | 
61 | CCN(C)C=Nc1ccc(-c2ccc(OC)c(OC)c2)cc1C(F)(F)F [Compound 94] | 1.71 | 
62 | CCN(C)C=Nc1ccc(-c2ccc(Cl)cc2Cl)cc1C(F)(F)F [Compound 85] | 2.39 | 
63 | CCN(C)C=Nc1ccc(-c2ccc(F)c(F)c2)cc1C [Compound 34] | 1.89 | 
64 | CCN(C)C=Nc1cc(C)c(-c2ccccc2)cc1C [Compound 134] | 1.77 | 
